Results reported in patent EP0252380B1, “Antibiotic LL-E19020 alpha and beta” (AMERICAN CYANAMID COMPANY, priority 1986, dated 1988).
Converted amounts (≈) assume the structure as drawn. Marks after values point to notes of the source that are not given here.

Tests used:
[1] = system: Trichostrongylus colubriformis; assay: Trichostrongylus colubriformis/gerbil anthelmintic evaluation; type: in vivo, Gerbils
Procedure: Gerbils are infected with 400 infective larvae of the sheep parasite, T. colubriformis on a day 0. On day 7 gerbils are divided into test and untreated control groups of 2-3 animals. Drug is administered in the feed and are fed from day 7-11. Drugs may also be given by gavage (single oral dose) or injected subcutaneously. Single doses are usually administered on day 7. Gerbils are killed on day 11 and small intestines removed. The number of T. colubriformis remaining in the intestines of treated animals are counted and compared to the number remaining in the untreated controls.

Streptococcus pneumoniae = assay: In vitro antibacterial activity, standard agar dilution method (Table II); type: cell-based
Pasteurella multocida = assay: Minimum inhibitory concentration by agar dilution (Table VI); type: cell-based; conditions: 6 strains tested
Pseudomonas aeruginosa = assay: In vitro antibacterial activity, standard agar dilution method (Table II); type: cell-based; conditions: strain 12-4-4
Treponema hyodysenteriae = assay: Minimum inhibitory concentration by microdilution (Table VII); type: cell-based
[2] = system: Staphylococcus saprophyticus; assay: In vitro antibacterial activity, standard agar dilution method (Table II); type: cell-based; conditions: strain VHG-84-50
[3] = system: In Vitro Rumen Fermentation; assay: Propionate enhancement activity during in vitro rumen fermentation; type: cell-based, steer; conditions: for A:P: acetate/propionate ratio
Procedure: The drugs are dissolved or suspended (sonified if necessary) in a 0.1% Tween 20-ethanol-water vehicle and 25-50 ul is added to the incubation. The reaction is terminated with 6N HCl and centrifuged at 20,000 x g. Alliquots of the superinatant are analyzed for volatile fatty acid (VFA) content by gas-liquid chromatography.

Streptococcus agalactiae = assay: Minimum inhibitory concentration by agar dilution (Table VI); type: cell-based; conditions: 4 strains tested
Bacteroides fragilis = assay: In vitro antibacterial activity, standard agar dilution method (Table II); type: cell-based; conditions: strain NYC 77-1
Escherichia coli = assay: as above; type: cell-based; conditions: strain 311
Morganella morganii = assay: as above; type: cell-based; conditions: strain VGH-84-71
Pasteurella haemolytica = assay: Minimum inhibitory concentration by agar dilution (Table VI); type: cell-based; conditions: 3 strains tested
Caenorhabditis elegans = assay: Control of the free living nematode Caenorhabditis elegans (motility rating); type: cell-based; parameters: key: 9 = worms immobile or dead within 4 hours post immersion in microfilter test solution; 8 = no motility; 7 = markedly reduced motility in approximately 95% of worms; 6 = reduced motility; 5 = slightly reduced motility; 0 = normal motility, same as controls; conditions: 150 ppm; motility of adults and larvae
Source text: Culture Maintenance: Cultures of C. elegans (Bristol strain from J. Lewis) are maintained on E. coli lawns on NG Agar Plates at 20 C. New cultures are established weekly. Nematodes for testing are washed from 4-5 day old cultures using Fresh Ascaris ringers Solution (FARS). The worms are further washed with FARS, containing gentamycin, to reduce bacterial contamination and centrifuged to separate worms from wash solution. This procedure is repeated three times. The washed worms are than added to C. briggsae Maintenance Medium (CbMM), from GIBCO^a to which is added gentamycin (600 units/ml) and mycostatin (0.5 mg.ml). ^aGIBCO Laboratories, 3175 Staley Road, Grand Island, N.Y. 14027, USA Compounds are dissolved in acetone and made up to volume with equal parts of water. The final test concentration of each compound in the mixture is 150 ppm. The test material is micropipetted (25 ul) into a single well of a 96-well sterile tissue culture plate (COSTAR)^b and the solvent allowed to evaporate. These "treated" plates are used immediately or stored in a freezer without apparent adverse effects on the compounds. ^b205 Broadway, Cambridge, MA 02139, USA […] […] Immediately prior to reading the plate, it is gently tapped to stimulate the movement of the worms. Activity is judged subjectively, but semi-quantitatively, based on the drug effects on motility of the adults and larvae. […]

Clostridium difficile = assay: In vitro antibacterial activity, standard agar dilution method (Table II); type: cell-based; conditions: strain ATCC 17858
[4] = Weight gain and feed efficiency of broiler chicks (Example 6, Table IX); type: in vivo, Peterson X Arbor Acres chicks; conditions: for Wg Gains And Feed Efficiency % Improvement Over Controls FEED/GAIN: control 1.41
Enterococcus = assay: In vitro antibacterial activity, standard agar dilution method (Table II); type: cell-based
[5] = system: Pasteurella multocida 31081B; assay: Pasteurella disk test (primary in vitro disk diffusion test); conditions: disks soaked in 2.5 mg/ml solution; strain 31081B
Peptococcus magnus = assay: In vitro antibacterial activity, standard agar dilution method (Table II); type: cell-based

SMILES: C/C=C\C=C\[C@@H]1O[C@](O)([C@H](CO[C@H]2C[C@@H](OC)[C@@H](O[C@@H]3C[C@@H](OC)[C@@H](O[C@H]4C[C@H](OC)[C@H](O)[C@H](C)O4)[C@H](C)O3)[C@@H](C)O2)C(=O)NC/C=C/C=C(\C)[C@@H](OC)[C@H](C)[C@H]2C[C@H](O)[C@H](/C=C/C=C/C=C/C(=O)O)O2)[C@H](OC(=O)Cc2ccccc2)[C@H](O)C1(C)C [LL-E19020 alpha]
- % Worms Removed ([1]; 10 m/kg single oral dose): 23%
- % Worms Removed ([1]; 250 ppm diet, fed day 7-11): 56%
- Minimal Inhibitory Concentration (Streptococcus pneumoniae; strain K-84-21): 1 µg/mL
- Minimal Inhibitory Concentration (Streptococcus pneumoniae; strain SVI): 1 µg/mL
- Minimal Inhibitory Concentration (Streptococcus pneumoniae; strain VGH-84-56): 1 µg/mL
- Minimal Inhibitory Concentration (Streptococcus pneumoniae; strain VGH-84-57): 2 µg/mL
- Minimal Inhibitory Concentration (Streptococcus pneumoniae; strain VGH-84-58): 0.25 µg/mL
- Minimal Inhibitory Concentration (Streptococcus pneumoniae; strain VGH-84-59): 0.25 µg/mL
- MIC (Pasteurella multocida): 8 to 16 µg/mL
- Minimal Inhibitory Concentration (Pseudomonas aeruginosa): >256 µg/mL
- MIC (Treponema hyodysenteriae; strain B78 (ATCC 27164)): 1 µg/mL (≈ 0.815 µM)
- MIC (Treponema hyodysenteriae; strain B204 (ATCC 31212)): 1 µg/mL (≈ 0.815 µM)
- Minimal Inhibitory Concentration [2]: > 256 µg/mL
- A:P ([3]; Table X, 0.008 PPM, control 2.65): 2.66
- TOTAL VFA ([3]; Table X, 0.008 PPM, control 159.4): 161.2 mM
- A:P ([3]; Table X, 0.031 PPM, control 2.65): 2.43
- TOTAL VFA ([3]; Table X, 0.031 PPM, control 159.4): 158.4 mM
- A:P ([3]; Table X, 0.125 PPM, control 2.65): 2.14
- TOTAL VFA ([3]; Table X, 0.125 PPM, control 159.4): 159.2 mM
- A:P ([3]; Table X, 0.500 PPM, control 2.65): 2.27
- TOTAL VFA ([3]; Table X, 0.500 PPM, control 159.4): 146.9 mM
- A:P ([3]; Table X, 2.000 PPM, control 2.65): 2.21
- TOTAL VFA ([3]; Table X, 2.000 PPM, control 159.4): 150.5 mM
- A:P ([3]; Table XI, 0.015 PPM, control 2.19): 2.05
- TOTAL VFA ([3]; Table XI, 0.015 PPM, control 125.3): 125.1 mM
- A:P ([3]; Table XI, 0.031 PPM, control 2.19): 1.96
- TOTAL VFA ([3]; Table XI, 0.031 PPM, control 125.3): 126.5 mM
- A:P ([3]; Table XI, 0.062 PPM, control 2.19): 1.90
- TOTAL VFA ([3]; Table XI, 0.062 PPM, control 125.3): 126.3 mM
- A:P ([3]; Table XI, 0.125 PPM, control 2.19): 1.92
- TOTAL VFA ([3]; Table XI, 0.125 PPM, control 125.3): 121.9 mM
- A:P ([3]; Table XI, 0.250 PPM, control 2.19): 1.85
- TOTAL VFA ([3]; Table XI, 0.250 PPM, control 125.3): 121.1 mM
- MIC (Streptococcus agalactiae): 2 to 8 µg/mL
- Minimal Inhibitory Concentration (Bacteroides fragilis): >128 µg/mL
- Minimal Inhibitory Concentration (Escherichia coli): >256 µg/mL
- Minimal Inhibitory Concentration (Morganella morganii): >256 µg/mL
- MIC (Pasteurella haemolytica): 16 µg/mL (≈ 13 µM)
- Rating (Caenorhabditis elegans): 9 (immobile or dead)
- Minimal Inhibitory Concentration (Clostridium difficile): 4 µg/mL
- Wg Gains And Feed Efficiency % Improvement Over Controls COMBINED ([4]; 12.5 PPM in diet): 3.8%
- Wg Gains And Feed Efficiency % Improvement Over Controls FEMALES ([4]; 12.5 PPM in diet): 7.8* %
- Wg Gains And Feed Efficiency % Improvement Over Controls MALES ([4]; 12.5 PPM in diet): 0%
- Wg Gains And Feed Efficiency % Improvement Over Controls FEED/GAIN ([4]; 12.5 PPM in diet): 1.36*
- Wg Gains And Feed Efficiency % Improvement Over Controls COMBINED ([4]; 25 PPM in diet): 5.5%
- Wg Gains And Feed Efficiency % Improvement Over Controls FEMALES ([4]; 25 PPM in diet): 4.8%
- Wg Gains And Feed Efficiency % Improvement Over Controls MALES ([4]; 25 PPM in diet): 5.9%
- Wg Gains And Feed Efficiency % Improvement Over Controls FEED/GAIN ([4]; 25 PPM in diet): 1.34**
- Wg Gains And Feed Efficiency % Improvement Over Controls COMBINED ([4]; 50 PPM in diet): 6.6* %
- Wg Gains And Feed Efficiency % Improvement Over Controls FEMALES ([4]; 50 PPM in diet): 10.5** %
- Wg Gains And Feed Efficiency % Improvement Over Controls MALES ([4]; 50 PPM in diet): 3.6%
- Wg Gains And Feed Efficiency % Improvement Over Controls FEED/GAIN ([4]; 50 PPM in diet): 1.34**
- Wg Gains And Feed Efficiency % Improvement Over Controls COMBINED ([4]; 100 PPM in diet): 2.9%
- Wg Gains And Feed Efficiency % Improvement Over Controls FEMALES ([4]; 100 PPM in diet): 3.2%
- Wg Gains And Feed Efficiency % Improvement Over Controls MALES ([4]; 100 PPM in diet): 2.9%
- Wg Gains And Feed Efficiency % Improvement Over Controls FEED/GAIN ([4]; 100 PPM in diet): 1.34**
- Wg Gains And Feed Efficiency % Improvement Over Controls COMBINED ([4]; 200 PPM in diet): 5.7%
- Wg Gains And Feed Efficiency % Improvement Over Controls FEMALES ([4]; 200 PPM in diet): 7.1%
- Wg Gains And Feed Efficiency % Improvement Over Controls MALES ([4]; 200 PPM in diet): 4.5%
- Wg Gains And Feed Efficiency % Improvement Over Controls FEED/GAIN ([4]; 200 PPM in diet): 1.32**
- Minimal Inhibitory Concentration (Enterococcus; strain CMC-83-72): >256 µg/mL
- Minimal Inhibitory Concentration (Enterococcus; strain IO-83-28): >256 µg/mL
- Minimal Inhibitory Concentration (Enterococcus; strain IO-83-40): >256 µg/mL
- Minimal Inhibitory Concentration (Enterococcus; strain VGH-84-65): 256 µg/mL
- Minimal Inhibitory Concentration (Enterococcus; strain VGH-84-68): >256 µg/mL
- ZONE SIZE [5]: 15 mm
- Minimal Inhibitory Concentration (Peptococcus magnus; strain ATCC 14956): 0.12 µg/mL
- Minimal Inhibitory Concentration (Peptococcus magnus; strain ATCC 29328): 0.12 µg/mL
